Reference: patent US20260234185A1, “ANTI-AGING COMPOSITION COMPRISING PEPTIDE COMPLEX AS ACTIVE INGREDIENT” (priority 2023, published 2026)
Where no end group is shown, it is not given here.

Legend:
Type in all cases: cell-based
[1] = test system: fibroblast growth factor 21 (FGF21); experiment: Western blot of FGF21 protein expression in adipocytes; details: differentiated 3T3-L1 adipocytes; 0.2, 2, 20 μg/mL; 1 hour; Western blot (FIGS. 1a, 1b)
Description: An experiment was performed to determine whether the peptide complex prepared in Preparation Example 1 using adipocytes increases the phosphorylation of AMP-activated protein kinase (AMPK), which is a longevity-related protein, and increases the expression levels of sirtuin 1 (SIRT1) and fibroblast growth factor 21 (FGF21) proteins in adipocytes.
When 3T3-L1 preadipocytes reached 80% confluence, they were seeded at 5×10^3 cells/well in a 96-well plate and used for the experiment. Two days after reaching confluence, the medium was replaced with a differentiation-inducing medium to induce the differentiation into adipocytes, and two days after the induction, the cells were cultured for 2 days in a medium containing 10% FBS and 10 μg/mL insulin, and then the medium was replaced with 10% FBS every 2 days until their differentiation into adipocytes. Once the differentiation was complete, the medium was replaced with a serum-free medium and cultured for 4 hours to induce starvation. The peptide complexes were treated at concentrations of 0.2 μg/mL, 2 μg/mL, and 20 μg/mL, incubated for 1 hour, dissolved by adding dissolution buffer thereto, and the proteins obtained by centrifugation at 4° C. and 12,000 rpm for 30 minutes were quantified using a BCA kit. […]

[2] = test system: FGF21 protein; experiment: ELISA of FGF21 protein expression in adipocytes; details: differentiated 3T3-L1 adipocytes, 0.2, 2, 20 μg/mL, ELISA (FIG. 2)
Description: An experiment was performed using adipocytes to determine whether the peptide complex prepared in Preparation Example 1 increases the expression level of FGF21 protein, a longevity-related protein, in adipocytes.
When 3T3-L1 preadipocytes reached 80% confluence, they were seeded at 5×10^3 cells/well in a 96-well plate and used for the experiment. Two days after reaching confluence, the medium was replaced with a differentiation-inducing medium to induce the differentiation into adipocytes, and two days after the induction, the cells were cultured for 2 days in a medium containing 10% FBS and 10 μg/mL insulin, and then the medium was replaced with 10% FBS every 2 days until differentiation into adipocytes. Once the differentiation was complete, the medium was replaced with a serum-free medium and cultured for 4 hours to induce starvation. The peptide complexes were treated at concentrations of 0.2 μg/mL, 2 μg/mL, and 20 μg/mL, and cultured for 48 and 72 hours, respectively. The complexes were dissolved by adding dissolution buffer thereto, and the proteins obtained by centrifugation at 4° C. and 12,000 rpm for 10 minutes were analyzed using a Quantikine ELISA Kit, and the absorbance was measured at 450 nm using a Microplate Reader.

[3] = test system: AMP-activated protein kinase (AMPK) gene; experiment: RT-PCR of AMPK gene expression in palmitate-treated adipocytes; details: 3T3-L1 adipocytes, 25 μM palmitate 30 minutes; 0.2, 2, 20 μg/mL; 24 hours; RT-PCR vs palmitate control (PA) (FIGS. 4a, 4b)
Description: An experiment was performed to determine whether the peptide complex prepared in Preparation Example 1 increases the gene expression of longevity-related genes, FGF21, SIRT1, AMPK, and FOXO3A, in adipocytes in a state of insulin metabolic disorder induced by palmitate treatment.
When 3T3-L1 preadipocytes reached 80% confluence, they were seeded at 5×10^3 cells/well in a 96-well plate and used for the experiment. Two days after reaching confluence, the medium was replaced with differentiation-inducing medium to induce the differentiation into adipocytes, and two days after the induction, the medium was cultured for 2 days in a medium containing 10% FBS and 10 μg/mL insulin, and then the medium was replaced with 10% FBS every 2 days until their differentiation into adipocytes. After differentiation was complete, the medium was replaced with glucose-free medium, cultured for 16 hours, and then starvation was induced by culturing for 40 minutes in 100 μL KPPH buffer containing 2% BSA. After treating with 25 μM palmitate for 30 minutes, the peptide complexes were treated at concentrations of 0.2 μg/mL, 2 μg/mL, and 20 μg/mL, cultured for 24 hours, and RNA was extracted after 24 hours and RT-PCR was performed. […] Subsequently, the mRNA expression pattern was determined by agarose gel electrophoresis.

peptide complex: prepared by mixing equal amounts of the peptide of SEQ ID NO: 1 (LKTRN) and the peptide of SEQ ID NO: 2 (KGSATGWMA) (also: mixture of two peptides)
increased: expression level of FGF21 protein [1] | expression level of FGF21 protein ([2]; 48 hours) | expression level of FGF21 protein ([2]; 72 hours) | expression of AMP-activated protein kinase (AMPK) gene [3]
